Experimental data reported in ChEMBL document CHEMBL1201862, “PubChem BioAssay data set” (2004).
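Results reflect a 48-hour exposure of cells in 96-well plates to compound at five concentrations. GI50: concentration for 50% inhibition of growth.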 Activity calls are given as the source filed them. Rule as the data show it: active = GI50 up to about 1.1 µM and inactive = higher.

Assays:
Assay in all cases: NCI anticancer screen, dose series, 48 h
[1] = tested on: PC-3
[2] = tested on: U-251
[3] = tested on: 786-0
[4] = tested on: LOX IMVI
[5] = tested on: NCI/ADR-RES
[6] = tested on: OVCAR-8
[7] = tested on: K562
[8] = tested on: HOP-92
[9] = tested on: SNB-75
[10] = tested on: EKVX
[11] = tested on: MOLT-4
[12] = tested on: ACHN
[13] = tested on: DU-145
[14] = tested on: SF-268
[15] = tested on: UO-31
[16] = tested on: HCT-15
[17] = tested on: CCRF-CEM
[18] = tested on: Hs-578T
[19] = tested on: SNB-19
[20] = tested on: TK-10
[21] = tested on: MDA-N
[22] = tested on: MCF7
[23] = tested on: IGROV-1
[24] = tested on: SW-620
[25] = tested on: OVCAR-5
[26] = tested on: UACC-257
[27] = tested on: MDA-MB-435
[28] = tested on: A549
[29] = tested on: CAKI-1
[30] = tested on: M14
[31] = tested on: SK-OV-3
[32] = tested on: OVCAR-4
[33] = tested on: UACC-62
[34] = tested on: SK-MEL-5
[35] = tested on: KM12
[36] = tested on: HT-29
[37] = tested on: NCI-H23
[38] = tested on: SK-MEL-2
[39] = tested on: Malme-3M
[40] = tested on: NCI-H226
[41] = tested on: BT-549
[42] = tested on: NCI-H522
[43] = tested on: OVCAR-3
[44] = tested on: SF-539
[45] = tested on: COLO 205
[46] = tested on: MDA-MB-231
[47] = tested on: HCT-116

Compound: Cc1csc(N/C=C2\C(=O)Oc3ccccc3C2=O)n1
- GI50 [1]: 30.2 µM (inactive)
- GI50 [2]: 26.2 µM (inactive)
- GI50 [3]: 34.8 µM (inactive)
- GI50 [4]: 22.1 µM (inactive)
- GI50 [5]: 35.7 µM (inactive)
- GI50 [6]: 32 µM (inactive)
- GI50 [7]: 81.7 µM (inactive)
- GI50 [8]: 17.9 µM (inactive)
- GI50 [9]: 10.4 µM (inactive)
- GI50 [10]: 21.3 µM (inactive)
- GI50 [11]: 41 µM (inactive)
- GI50 [12]: 9.02 µM (inactive)
- GI50 [13]: 29 µM (inactive)
- GI50 [14]: 26.5 µM (inactive)
- GI50 [15]: 11.7 µM (inactive)
- GI50 [16]: 22.5 µM
- GI50 [17]: 35.8 µM (inactive)
- GI50 [18]: 20.1 µM (inactive)
- GI50 [19]: 33.7 µM (inactive)
- GI50 [20]: 17.1 µM (inactive)
- GI50 [21]: 33.2 µM (inactive)
- GI50 [22]: 25.9 µM (inactive)
- GI50 [23]: 24.7 µM (inactive)
- GI50 [24]: 33.2 µM (inactive)
- GI50 [25]: 58.6 µM (inactive)
- GI50 [26]: 45.2 µM (inactive)
- GI50 [27]: 24.9 µM (inactive)
- GI50 [28]: 38.7 µM (inactive)
- GI50 [29]: 19.8 µM (inactive)
- GI50 [30]: 35.8 µM (inactive)
- GI50 [31]: 7.05 µM (inactive)
- GI50 [32]: 32.7 µM (inactive)
- GI50 [33]: 24.6 µM (inactive)
- GI50 [34]: 23.9 µM (inactive)
- GI50 [35]: 40 µM (inactive)
- GI50 [36]: 36 µM (inactive)
- GI50 [37]: 18.2 µM (inactive)
- GI50 [38]: 13.4 µM (inactive)
- GI50 [39]: 20.5 µM (inactive)
- GI50 [40]: 24.2 µM (inactive)
- GI50 [41]: 25.6 µM (inactive)
- GI50 [42]: 26.4 µM (inactive)
- GI50 [43]: 26.7 µM (inactive)
- GI50 [44]: 26.9 µM (inactive)
- GI50 [45]: 35 µM (inactive)
- GI50 [46]: 20.2 µM (inactive)
- GI50 [47]: 28.4 µM (inactive)
